Here are results for 1 compound from patent publication US8207361B2, “Tigecycline crystalline forms and processes for preparation thereof” (Teva Pharmaceutical Industries Ltd., priority 2006, dated 2012).

A short description of this data set: Exposure of crystalline form to about 100% room humidity, crystal form monitored by XRD. The data set is classed as physicochemical. Particulars: after exposure to about 100% RH for about 7 days at about room temperature, Form I prepared from ethyl acetate (about 80 mg). From the text:
A round aluminum sample holder with zero background was used.

Turning to `CN(C)c1cc(NC(=O)CNC(C)(C)C)c(O)c2c1C[C@H]1C[C@H]3[C@H](N(C)C)C(O)=C(C(N)=O)C(=O)[C@@]3(O)C(O)=C1C2=O` [Form I, (4S,4aS,5aR,12aS)-9-(2-(tert-butylamino)acetamido)-4,7-bis(dimethylamino)-1,4,4a,5,5a,6,11,12a-octahydro-3,10,12,12a-tetrahydroxy-1,11-dioxo-2-naphthacenecarboxamide], the Crystal form result is “Amorphous”.
